Read-outs that look alike come from different tables or passages of the source.
How the values were obtained:
[1] = biological target: T1, hIK1 (Homo sapiens, UniProt O15554); format: cell-based; conditions: for enhancement of the amplitude of IK currents: 0.3 μM free Ca^2+ in pipette, voltage ramps
T1 construct: expressed in transfected cells; host or cells: HEK293T cells, transient transfection with Lipofectamine 2000

[2] = test system: L-type Ca^2+ channels; conditions: read-out: IC50 for block of L-type Ca^2+ channels; cited from earlier work
Description: (§1) There are a variety of valuable pharmacological tools available to study the contribution of specific IK channels to the mechanism of endothelium-dependent dilation in isolated vessels and to blood pressure control in vivo. IK channel modulators mainly comprise small organic compounds and venom-derived peptides. These different classes of chemicals modulate the channel by binding to either the external or the internal face of the ion-conducting pore. Among the different ion modulators, venom-derived peptides usually block their targets with high affinity, that is, with IC50 in the […] ...

[3] = test system: cardiac hERG K^+ channels; conditions: micromolar concentrations; cited from earlier work
Description: as §1

[4] = biological target: T1, hIK1; conditions: hIK1 cell line; read-out: EC50 for hIK1 activation; cited from earlier work
Description: The intermediate-conductance Ca^2+-activated K^+ (IK) channels belong to the gene family of calcium/calmodulin-regulated and voltage-independent K^+ channels (SK1/SK2/SK3 and IK) and contribute to cellular functions by producing membrane hyperpolarization, thus regulating intracellular Ca^2+ signaling. IK channels are gated solely by internal Ca^2+, with a unit conductance of 20–85 pS. Expression of hIK1 in HEK293T cells gives rise to inwardly rectifying K^+ currents, which are activated by submicromolar concentrations of intracellular Ca^2+ (EC50 = 0.3 μM). […] After the application of 80 μM HNTX-I, NS309 still activated the current about 1.5-fold (Figure 3A). […] After the initial equilibration period, HNTX-I was added at 80 μM to yield a higher current within ~3 min. Then, 100 nM NS309 was applied and reached the peak in under 1 min. Thus, the p ...

[5] = test system: voltage-gated Ca^2+ channels; experiment: voltage-gated Ca^2+ channels, summary of screening; format: cell-based, rat; conditions: 100 μM
[6] = test system: voltage-gated Na^+ channels; experiment: voltage-gated Na^+ channels, summary of screening; format: cell-based, rat; conditions: 100 μM
[7] = test system: American cockroach (Periplaneta americana); experiment: acute in vivo toxicity in American cockroach; conditions: intra-abdominal injection, 50–250 μg/g; adult male; 7 days
Method: (§2) Five mice (17–19 g) were injected intravenously with multiple […] doses of 0.5–2.5 mg/kg HNTX-I (in mammalian Ringer solution with 1% ethanol and 2.5% BSA). Five control mice were injected with an equal volume of the vehicle. The toxicity of HNTX-I was qualitatively assayed by intra-abdominal injection into adult male cockroaches (Periplaneta) with body weights of 0.8–1.2 g at doses of 50–250 μg/g using 10-μL solutions (in 0.85% (w/v) normal saline).

[8] = test system: neuronal TTX-S VGSCs; conditions: adult rat dorsal root ganglion neurons; ref previous works (ref 9); cited from earlier work
[9] = test system: voltage-gated L-type Ca^2+ channels; experiment: L-type Ca^2+ channels from DRG, whole-cell patch-clamp; format: cell-based; conditions: 100 μM; rat DRG; n = 5
[10] = test system: VGSCs; conditions: ref previous work; cited from earlier work
Description: In general, hydrophobic and polar residue hot spots are important binding determinants in toxins and ion channel interactions. […] HNTX-I should therefore present a similar type of interacting surface as other toxins whose binding sites are at the outer membrane. In our previous work, we have shown that such a basic profile ...

[11] = test system: tetrodotoxin-resistant (TTX-R) Na^+ channels; conditions: cited from earlier work
[12] = test system: VGSCs in cardiac or skeletal muscles; conditions: mammals; ref previous works; cited from earlier work
[13] = test system: mouse phrenic nerve-diaphragm preparations; experiment: phrenic nerve-diaphragm twitch-tension (phrenic nerve conduction block)
Method: The twitch-tension experiments were performed using mouse phrenic nerve-diaphragm preparations. Adult Kunming albino mice (18–22 g of either gender) were killed by cervical dislocation. After dissection, the preparations were placed in a Plexiglas chamber immersed in Tyrode’s solution or toxin solutions continuously bubbled with 95% O2, 5% CO2 and maintained at 30–32 °C. The electrical stimulation was applied indirectly to the phrenic nerve with a suction electrode at 0.2 Hz with pulses of 0.2 ms in duration and supramaximally. For direct stimulation, the muscle was stimulated at a frequency of 0.2 Hz (supramaximal, 2 ms, square wave). A mechanical-electric transducer made of a semiconductor strain gauge was used to transform the twitch responses into electric signals. […] The time from the application of HNTX-I to complete blocking of neuromuscular transmission was defined as blocking time, and the concentrations of HNTX-I we used were 1 μM, 10 μM and 100 μM.

[14] = test system: rNav1.2/β1; conditions: Xenopus laevis oocytes; ref previous works; cited from earlier work
[15] = test system: hERG K^+ channel; conditions: 100 μM
[16] = test system: voltage-gated T-type Ca^2+ channels; experiment: T-type Ca^2+ channels from DRG, whole-cell patch-clamp; format: cell-based; conditions: 100 μM; rat DRG; n = 5
[17] = test system: mice; experiment: acute in vivo toxicity in mice; design: species or system mouse
Method: as §2

[18] = test system: BK channels; experiment: BK channel current in HEK293T cells, whole-cell patch-clamp; format: cell-based; conditions: 100 μM, n = 5
[19] = test system: para/tipE; conditions: Xenopus laevis oocytes; ref previous works; cited from earlier work
[20] = intravenous, 0.5–2.5 mg/kg, seven days

T1 sequence (O15554 whole entry): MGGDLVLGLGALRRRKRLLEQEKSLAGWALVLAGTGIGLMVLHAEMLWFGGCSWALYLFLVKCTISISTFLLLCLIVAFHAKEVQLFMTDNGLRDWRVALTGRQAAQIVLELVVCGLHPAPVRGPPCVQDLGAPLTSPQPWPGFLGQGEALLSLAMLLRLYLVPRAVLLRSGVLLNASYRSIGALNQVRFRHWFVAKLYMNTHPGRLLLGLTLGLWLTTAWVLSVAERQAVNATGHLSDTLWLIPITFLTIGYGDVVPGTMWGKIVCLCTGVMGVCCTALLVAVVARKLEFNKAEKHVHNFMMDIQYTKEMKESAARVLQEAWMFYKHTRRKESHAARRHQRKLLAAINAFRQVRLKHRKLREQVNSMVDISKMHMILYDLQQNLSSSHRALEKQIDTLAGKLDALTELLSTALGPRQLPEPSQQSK

## O=C1Nc2c(ccc(Cl)c2Cl)C1=NO [NS309, 3-oxime-6,7-dichloro-1H-indole-2,3-dione, reference compound]
[1]; 100 nM NS309, 80 μM HNTX-I
  activation of hIK1 channels in the presence of HNTX-I: activated hIK1 channels
[1]; 100 nM NS309 after application of 80 μM HNTX-I
  activation of current after HNTX-I (fold): about 1.5 fold
[1]; 100 nM NS309 in the presence of 80 μM HNTX-I
  influence of HNTX-I on potency and kinetics of NS309: not notably influenced by HNTX-I
[1]; 100 nM NS309 in the presence of 80 μM HNTX-I, n = 5
  time to peak of NS309 activation: under 1 min
[2]
  IC50: 10 µM
[3]
  inhibition of cardiac hERG K^+ channels: inhibits
[4]
  EC50: 0.03 µM

## Hainantoxin-I [HNTX-I]
[5]
  sensitivity of voltage-gated Ca^2+ channels: insensitive
[6]
  sensitivity of voltage-gated Na^+ channels: insensitive
[7]
  symptoms of poisoning: did not produce symptoms of poisoning
[8]
  effect on neuronal TTX-S VGSCs: no effect
[1]; 40 μM HNTX-I, n = 5
  enhancement of the amplitude of IK currents: 33.2% ± 0.5
[1]; 80 μM HNTX-I
  reversibility / dose-dependency on hIK1: clearly demonstrated the dose-dependency, as well as reversible nature
[1]; 80 μM HNTX-I, after initial equilibration, before NS309
  time to yield higher current: ~ 3 min
[1]; 80 μM HNTX-I, n = 5
  enhancement of the amplitude of IK currents: 97% ± 0.7
[1]; 80 μM HNTX-I, current shortly before application = 100%
  Imax: 197%
[1]; 200 μM HNTX-I, compared with 80 μM
  Imax at higher concentration: did not change
[1]; after 40 μM HNTX-I applied, n = 5
  time to reach higher current level: ~ 3 min
[1]; washing after 40 μM HNTX-I, n = 5
  return of current to baseline upon washing: the current returned to baseline with approximately the same time characteristics
[9]
  effect on L-type Ca^2+ channels: no effect
[10]
  inhibition of VGSCs in vertebrates and insects: inhibits VGSCs
[11]
  effect on TTX-R Na^+ channels: no effect
[12]
  effect on VGSCs in cardiac or skeletal muscles: nor does it target VGSCs
[13]; 1 μM, Tyrode's solution, 30–32 °C
  inhibition of nerve-evoked twitch tension: did not inhibit the nerve-evoked twitch tension
[13]; 100 μM or lower
  influence on neuromuscular transmission: did not influence the neuromuscular transmission
[13]; 10 and 100 μM, within 4 h, n = 5
  blockade of twitch responses: no apparent blockades in the twitch responses
[14]
  block of rNav1.2/β1: selectively blocks
[15]
  sensitivity of hERG K^+ channels: insensitive
[15]; HEK293T cells, n = 5
  effect on hERG K^+ channel: no effect
[16]
  effect on T-type Ca^2+ channels: no effect
[17]; intravenous, 0.5, 1.0, 1.5, 2.0 and 2.5 mg/kg, five mice per dose, seven-day study
  clinical appearance: appeared clinically normal
[17]; [20]
  aggressive/defensive responses: no aggressive/defensive responses were elicited
  death: did not cause death at any concentration
  depilation of pelage: not depilated
[18]
  effect on BK channels: no effect
[19]
  block of para/tipE: selectively blocks

## CCn1c(=O)[nH]c2cc(Cl)c(Cl)cc21 [DC-EBIO, 5,6-dichloro-1-ethyl-1,3-dihydro-2H-benzimidazole-2-one]
[2]
  IC50: 70 µM

— article PMC4147597 (Toxins, 2014)
